Test system: TW1 hESCs
Assay: Comparison of additive groups: morphology and Oct4/Nestin immunofluorescence
Assay type: cell-based, human
Settings: compared to group 3 (BIO + SB431542)
Excerpt: The TW1 hESCs were divided into four groups according to the additives at culture day 3. The detail of the above steps refers to the examples 1 to 3.
Referring to the methods in examples 5 and 6, the protein expressions of Oct4 and Nestin in the each groups and the results were examined and shown in FIG. 9.

Substance: fibroblast growth factor-2 [FGF2]
- compaction and neural rosettes formation: further enhanced
